Data from US8999990B2, “Inhibitors of the renal outer medullary potassium channel” (Merck Sharp & Dohme Corp., priority 2011, dated 2015).

What follows are molecules tested against T1, hROMK (hKir1.1) (Homo sapiens, UniProt P48048) (assay: Thallium Flux Assay). Conditions: HEK293 cells stably expressing hROMK; FLIPR-Tetra, 384 wells; read-out: Thallium Flux IC50.
T1 construct: expressed in transfected cells
T1 sequence (P48048 1-391): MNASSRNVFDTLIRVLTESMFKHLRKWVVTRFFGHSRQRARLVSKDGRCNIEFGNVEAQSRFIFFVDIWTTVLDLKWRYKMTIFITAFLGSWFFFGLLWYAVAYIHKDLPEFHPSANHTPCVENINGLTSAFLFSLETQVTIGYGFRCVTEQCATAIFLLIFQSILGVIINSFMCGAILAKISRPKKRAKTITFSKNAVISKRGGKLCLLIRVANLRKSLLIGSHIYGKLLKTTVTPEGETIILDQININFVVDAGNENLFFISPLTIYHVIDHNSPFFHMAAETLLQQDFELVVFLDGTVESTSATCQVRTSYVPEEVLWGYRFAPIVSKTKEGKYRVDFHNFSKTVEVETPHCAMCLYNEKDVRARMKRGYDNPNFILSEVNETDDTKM
Assay type: cell-based
Experimental: Several assays may be used to measure functional inhibition of the ROMK channel by compounds of the instant invention. One assay that was used to test the activity of compounds in the Examples is the functional ^86Rb^+ efflux assay described below, that measures the ability of ROMK to permeate ^86Rb^+, in the absence or presence of test compound. Under control conditions, cells loaded with ^86Rb^+ and incubated in Rb^+-free medium display a time-dependent efflux of the isotope, the rate of which depends on number of functional channels. When cells are incubated in the presence of a channel inhibitor, efflux of ^86Rb^+ is prevented in a concentration-dependent manner, and IC50 values of inhibition by compounds can be accurately determined. This assay has been established with cell lines expressing either human, rat or dog ROMK channels, and can operate in 96- or 384-well format. Importantly, the human, rat, and dog ^86Rb^+ efflux assays can be carried out in the presence of up to 100% serum allowing, therefore, an accurate estimation of the effect of protein binding on the inhibitory activity of compounds of interest. Another ROMK functional assay used to test the activity of compounds in the Examples (described below) makes use of the ability of thallium to permeate through open ROMK channels and increase the fluorescence of a dye previously loaded into the cells. Under control conditions, cells loaded with dye and exposed to thallium-containing medium display a time-dependent increase in fluorescence, the rate of which depends on number of functional channels. When cells are incubated in the presence of a channel inhibitor, the increase in fluorescence is attenuated in a concentration-dependent manner, and IC50 values of inhibition by compounds can be accurately determined. This assay has been established with cell lines expressing either human, or rat ROMK channels, and operates in 384-well format.
HEK293 cells stably expressing hROMK (hKir1.1) were grown at 37° C. in a 10% CO2 humidified incubator in complete growth media: Dulbecco's Modified Eagle Medium supplemented with non-essential amino acids, Penicillin/Streptomycin/Glutamine, G418 and FBS. At >80% confluency, aspirate the media from the flask and rinse with 10 mL Calcium/Magnesium-free PBS. Add 5 mL of 1× trypsin (prepared in Ca/Mg Free PBS) to T-225 flask and return flask to 37° C./CO2 incubator for 2-3 minutes. To dislodge the cell, gently bang the side of the flask with your hand. Triturate the cells completely and then transfer the cells to 25 mL complete media. Centrifuge at 1,500 rpm for 6 min followed by resuspension in complete growth media and determine cell concentration. For typical re-seeding, 4E6 cells/T-225 flask will attain >80% confluency in 4 days. Under ideal growth conditions and appropriate tissue culture practices, this cell line is stable for 40-45 passages.
• FluxOR™ Reagent (Component A) • FluxOR™ Assay Buffer (Component B)—10× Concentrate • PowerLoad™ Concentrate (Component C)—100× Concentrate • Probenecid (Component D)—Lyophilized sample is kept at −20° C. Water soluble, 100× after solubilization in 1 mL water. […] Store at 4° C. • Thallium sulfate (Tl2SO4) Concentrate (Component G)—50 mM in water. […]

| Compound | IC50 |
| --- | --- |
| Cc1c(C(O)CN2CCN(C[C@H](O)c3ccc4c(c3C)COC4=O)CC2=O)ccc2c1COC2=O (stereo partly drawn) [Example 45, 4-[(2R)-2-Hydroxy-2-(4-methyl-1-oxo-1,3-dihydro-2-benzofuran-5-yl)ethyl]-1-[2-hydroxy-2-(4-methyl-1-oxo-1,3-dihydro-2-benzofuran-5-yl)ethyl]piperazin-2-one] | 0.68 µM |
| Cc1c(C(=O)CN2CCN(C[C@H](O)c3ccc4c(c3C)COC4=O)CC2=O)ccc2c1COC2=O [Example 48, 4-[(2R)-2-Hydroxy-2-(4-methyl-1-oxo-1,3-dihydro-2-benzofuran-5-yl)ethyl]-1-[2-(4-methyl-1-oxo-1,3-dihydro-2-benzofuran-5-yl)-2-oxoethyl]piperazin-2-one] | 0.08 µM |
| COc1ccc(C(=O)CN2CCN(C[C@H](O)c3ccc4c(c3C)COC4=O)CC2=O)c(C)c1C#N [Example 50, 3-({4-[(2R)-2-Hydroxy-2-(4-methyl-1-oxo-1,3-dihydro-2-benzofuran-5-yl)ethyl]-2-oxopiperazin-1-yl}acetyl)-6-methoxy-2-methylbenzonitrile] | 0.197 µM |
| Cc1c(C(=O)CN2CCN(C[C@H](O)c3ccc4c(c3C)COC4=O)CC2=O)ccc(F)c1C#N [Example 51, 6-Fluoro-3-({4-[(2R)-2-hydroxy-2-(4-methyl-1-oxo-1,3-dihydro-2-benzofuran-5-yl)ethyl]-2-oxopiperazin-1-yl}acetyl)-2-methylbenzonitrile] | 0.125 µM |
| Cc1c([C@@H](O)CN2CCN(C3CCc4cc(C#N)ccc4C3)C(=O)C2)ccc2c1COC2=O (stereo partly drawn) [Example 47, 6-{4-[(2R)-2-Hydroxy-2-(4-methyl-1-oxo-1,3-dihydro-2-benzofuran-5-yl)ethyl]-2-oxopiperazin-1-yl}-5,6,7,8-tetrahydronaphthalene-2-carbonitrile] | 0.06 µM |
| Cc1cc2c(cc1C(O)CN1CCN(C3CCc4cc(C#N)ccc4C3)C(=O)C1)COC2=O (stereo not shown) [Example 49, 6-{4-[2-Hydroxy-2-(6-methyl-1-oxo-1,3-dihydro-2-benzofuran-5-yl)ethyl]-2-oxopiperazin-1-yl}-5,6,7,8-tetrahydronaphthalene-2-carbonitrile] | 0.09 µM |
| Cc1c(C(O)CN2CCN(C[C@@H](O)c3ccc4c(c3C)COC4=O)CC2=O)ccc2c1COC2=O (stereo partly drawn) [Example 46, 4-[(2S)-2-Hydroxy-2-(4-methyl-1-oxo-1,3-dihydro-2-benzofuran-5-yl)ethyl]-1-[2-hydroxy-2-(4-methyl-1-oxo-1,3-dihydro-2-benzofuran-5-yl)ethyl]piperazin-2-one] | 0.27 µM |

Further lines, results first:

| IC50 | Compound |
| --- | --- |
| 0.78 µM | Cc1c(CCN2CCN(CCc3ccc(C#N)cn3)C(=O)C2)ccc2c1COC2=O [Example 54, 6-(2-{4-[2-(4-Methyl-1-oxo-1,3-dihydro-2-benzofuran-5-yl)ethyl]-2-oxopiperazin-1-yl}ethyl)pyridine-3-carbonitrile] |
| 0.235 µM | Cc1c(CCN2CCN(C[C@H](O)c3ccc4c(c3C)COC4=O)CC2=O)ccc2c1COC2=O [Example 52, 4-[(2R)-2-hydroxy-2-(4-methyl-1-oxo-1,3-dihydro-2-benzofuran-5-yl)ethyl]-1-[2-(4-methyl-1-oxo-1,3-dihydro-2-benzofuran-5-yl)ethyl]piperazin-2-one] |
| 0.31 µM | Cc1c(C(O)CN2CCN(CCc3ccc(C#N)cn3)C(=O)C2)ccc2c1COC2=O (single isomer, unassigned) [Example 55, 6-(2-{4-[2-Hydroxy-2-(4-methyl-1-oxo-1,3-dihydro-2-benzofuran-5-yl)ethyl]-2-oxopiperazin-1-yl}ethyl)pyridine-3-carbonitrile] |
| 0.66 µM | Cc1c(CCN2CCN(C[C@@H](O)c3ccc4c(c3C)COC4=O)CC2=O)ccc2c1COC2=O [Example 53, 4-[(2S)-2-hydroxy-2-(4-methyl-1-oxo-1,3-dihydro-2-benzofuran-5-yl)ethyl]-1-[2-(4-methyl-1-oxo-1,3-dihydro-2-benzofuran-5-yl)ethyl]piperazin-2-one] |

Same assay, conditions: text of Example 55; separated stereo-isomer; read-out: IC50 in the Thallium Flux Assay

| IC50 | Compound |
| --- | --- |
| > 1 µM | Cc1c(C(O)CN2CCN(CCc3ccc(C#N)cn3)C(=O)C2)ccc2c1COC2=O (single isomer, unassigned) [Isomer A, 6-(2-{4-[2-Hydroxy-2-(4-methyl-1-oxo-1,3-dihydro-2-benzofuran-5-yl)ethyl]-2-oxopiperazin-1-yl}ethyl)pyridine-3-carbonitrile] |

Same assay, conditions: text of Example 55; separated stereo-isomers

| potency in the Thallium Flux Assay compared with Isomer A | Compound |
| --- | --- |
| more potent | Cc1c(C(O)CN2CCN(CCc3ccc(C#N)cn3)C(=O)C2)ccc2c1COC2=O (single isomer, unassigned) [Example 55, 6-(2-{4-[2-Hydroxy-2-(4-methyl-1-oxo-1,3-dihydro-2-benzofuran-5-yl)ethyl]-2-oxopiperazin-1-yl}ethyl)pyridine-3-carbonitrile] |
